The values below come from PMC11859031, “Assessment of the In Vitro Biological Activities of Schiff Base-Synthesized Copper Oxide Nanoparticles as an Anti-Diabetic, Anti-Alzheimer, and Anti-Cancer Agent” (Pharmaceutics, 2025).

Molecules are shown by their SMILES.

The test system of this test is Bcl-2 in BJ-1 cells. The test can be described thus: Bcl-2 ELISA in treated BJ-1 cells. It is filed as cell-based, human. Particulars: BJ-1 cells treated at the IC50 value, mean ± SE, n = 3. The protocol:
Following the treatment of HepG-2, Caco-2, A549, and BJ-1 cells with the SB-CuO-NPs at their respective IC50 values, as illustrated in Figure 9 and detailed in Table 5, an assessment of the activities of the caspase-3 and Bcl-2 enzymes was conducted in the treated cells. […] This mechanism ultimately triggers apoptosis. Additionally, the increased activity of caspase-3 results in a decrease in the expression of cyclin D1 and CDK-2 mRNA, thereby promoting the arrest of the G1 phase of the cell cycle. Othman et al. further noted that the biosynthesized M-NPs facilitate apoptosis by inhibiting the expression of the PI3K/AKT and Ras/Raf/ERK protein signaling pathways.
Invitrogen Corporation, following the manufacturer's instructions.
In general terms: In an ELISA, binding on a coated surface is turned into a signal by an enzyme label.

Take `Cc1nn(-c2ccccc2)c(Cl)c1C=NN=C1C(=O)Nc2ccccc21` [SB]: the Bcl-2 is 4.98 ± 0.03 ng/mL.
